The values that follow come from PMC9699427 (Viruses, 2022).

The subject of series [1] is C8166 cells infected with HIV-1IIIB or TZM-bl cells infected with HIV-1YU-2. Briefly: Combination antiviral activity assay (CompuSyn CI and DRI). It is filed as cell-based.
Another series concerns the target CYP2C19 (Homo sapiens, UniProt P33261). Nature of the series: Cytochrome P450 inhibition, human liver microsomes, S-mephenytoin.
The subject of series [2] is HIV-1IIIB chronically infected H9 cells. Nature of the series: HIV-1 replication in chronically infected H9/HIV-1IIIB cells, p24. It is filed as cell-based.
The next series concerns the target CYP2D6 (Homo sapiens, UniProt P10635). Nature of the series: Cytochrome P450 inhibition, human liver microsomes, dextromethorphan.
Series [3] is described as follows: Cytotoxicity, MTT assay, H9/HIV-1IIIB cells. The class given is cell-based. The following applies: human, three days, read-out: CC50 (Mean ± SD).
For another series, the target named is T1, CYP1A2 (Homo sapiens, UniProt P05177).
T1 sequence (P05177 1-516): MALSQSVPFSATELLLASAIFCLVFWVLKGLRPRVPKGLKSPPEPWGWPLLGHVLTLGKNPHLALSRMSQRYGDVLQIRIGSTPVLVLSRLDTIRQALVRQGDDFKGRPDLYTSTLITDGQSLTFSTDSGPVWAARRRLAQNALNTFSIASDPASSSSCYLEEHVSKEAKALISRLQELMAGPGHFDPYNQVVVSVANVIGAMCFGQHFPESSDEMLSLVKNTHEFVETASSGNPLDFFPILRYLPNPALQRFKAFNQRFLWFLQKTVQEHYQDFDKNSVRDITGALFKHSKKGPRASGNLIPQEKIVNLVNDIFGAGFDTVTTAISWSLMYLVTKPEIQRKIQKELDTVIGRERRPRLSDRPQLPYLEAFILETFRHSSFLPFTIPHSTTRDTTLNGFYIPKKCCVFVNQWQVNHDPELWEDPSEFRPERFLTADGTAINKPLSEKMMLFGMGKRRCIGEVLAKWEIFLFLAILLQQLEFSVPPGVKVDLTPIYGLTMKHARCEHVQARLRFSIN
Nature of the series: Cytochrome P450 inhibition, human liver microsomes, phenacetin.

The test system of the next series is HIV-1Yu-2(G140S/Q148H). Nature of the series: microbe, parasite or virus in culture. The class given is cell-based. The following applies: Human immunodeficiency virus 1, TZM-bl.
For the next series, the target named is CYP3A4M (Homo sapiens, UniProt P08684). Briefly: Cytochrome P450 inhibition, human liver microsomes, midazolam.
The nature of series [4]: Cytotoxicity, MTT assay, C8166 cells. The following applies: human, three days, read-out: CC50 (Mean ± SD). It is filed as cell-based.
Series [5] relates to HIV-1IIIB. Nature of the series: Anti-HIV-1 activity, MTT protection of MT-4 cells. It is filed as cell-based. The following applies: Human immunodeficiency virus 1, MT4, MT-4, MTT.
Series [6] can be described thus: Cytotoxicity, MTT assay, MT-4 cells. The class given is cell-based. The following applies: human, three days, read-out: CC50 (Mean ± SD).
Series [7] is described as follows: Cytotoxicity, MTT assay, PBMCs. The class given is cell-based. The following applies: human, PBMC, seven days, read-out: CC50 (Mean ± SD).
The subject of series [8] is HIV-1IIIB. Briefly: Anti-HIV-1 activity in the presence of human serum, p24 in C8166. The following applies: Human immunodeficiency virus 1, C8166, HIV-1IIIB.
For another series, the target named is CYP2C9 (Homo sapiens, UniProt P11712). Briefly: Cytochrome P450 inhibition, human liver microsomes, diclofenac.
Series [9] relates to HIV-1IIIB. Briefly: Anti-HIV-1 activity, syncytia (CPE) count in C8166 cells. The class given is cell-based. The following applies: Human immunodeficiency virus 1.
[10] abbreviates: single drug in combination K-5a2+3TC.
Where [11] appears, read: single drug in combination K-5a2+AZT.
Setting [12] is: single drug in combination K-5a2+DRV.
[13] abbreviates: single drug in combination K-5a2+DTG.
Where [14] appears, read: single drug in combination K-5a2+ETR.
The mark [15] stands for this setting: single drug in combination K-5a2+FTC.
Where [16] appears, read: single drug in combination K-5a2+TDF.
Setting [17] is: single drug in combination K-5a2+T-20.
Where [18] appears, read: single drug in combination K-5a2+MVC.
[19] abbreviates: single drug in combination K-5a2+DC521022.

Like-named read-outs stand apart in the source and are kept apart here. Bounds are passed on as bounds.

Sequence of CYP2D6 (P10635 whole entry): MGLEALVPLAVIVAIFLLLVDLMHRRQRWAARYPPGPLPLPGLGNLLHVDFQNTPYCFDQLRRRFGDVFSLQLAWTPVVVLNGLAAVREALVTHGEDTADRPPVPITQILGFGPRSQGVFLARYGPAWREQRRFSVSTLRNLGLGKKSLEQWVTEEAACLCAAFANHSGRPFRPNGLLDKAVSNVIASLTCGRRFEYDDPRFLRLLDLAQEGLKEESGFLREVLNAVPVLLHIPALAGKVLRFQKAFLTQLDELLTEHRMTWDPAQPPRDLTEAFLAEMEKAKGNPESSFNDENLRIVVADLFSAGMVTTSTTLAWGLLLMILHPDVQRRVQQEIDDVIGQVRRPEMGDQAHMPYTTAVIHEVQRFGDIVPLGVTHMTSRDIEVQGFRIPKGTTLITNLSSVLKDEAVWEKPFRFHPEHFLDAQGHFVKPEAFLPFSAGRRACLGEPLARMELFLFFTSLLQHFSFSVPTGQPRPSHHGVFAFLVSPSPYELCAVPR
Sequence of CYP3A4M (P08684 whole entry): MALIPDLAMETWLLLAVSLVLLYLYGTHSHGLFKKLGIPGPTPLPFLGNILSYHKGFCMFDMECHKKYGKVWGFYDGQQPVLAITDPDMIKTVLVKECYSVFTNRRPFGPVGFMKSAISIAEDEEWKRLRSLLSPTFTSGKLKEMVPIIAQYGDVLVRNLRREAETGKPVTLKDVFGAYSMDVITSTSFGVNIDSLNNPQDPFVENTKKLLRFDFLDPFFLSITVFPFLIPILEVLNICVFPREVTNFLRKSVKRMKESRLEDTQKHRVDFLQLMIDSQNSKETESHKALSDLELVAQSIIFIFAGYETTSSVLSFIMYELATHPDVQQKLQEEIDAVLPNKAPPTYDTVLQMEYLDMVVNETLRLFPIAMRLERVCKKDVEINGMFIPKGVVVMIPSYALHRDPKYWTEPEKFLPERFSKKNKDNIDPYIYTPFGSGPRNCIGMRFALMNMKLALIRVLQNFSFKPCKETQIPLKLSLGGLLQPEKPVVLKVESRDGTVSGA
Sequence of CYP2C19 (P33261 whole entry): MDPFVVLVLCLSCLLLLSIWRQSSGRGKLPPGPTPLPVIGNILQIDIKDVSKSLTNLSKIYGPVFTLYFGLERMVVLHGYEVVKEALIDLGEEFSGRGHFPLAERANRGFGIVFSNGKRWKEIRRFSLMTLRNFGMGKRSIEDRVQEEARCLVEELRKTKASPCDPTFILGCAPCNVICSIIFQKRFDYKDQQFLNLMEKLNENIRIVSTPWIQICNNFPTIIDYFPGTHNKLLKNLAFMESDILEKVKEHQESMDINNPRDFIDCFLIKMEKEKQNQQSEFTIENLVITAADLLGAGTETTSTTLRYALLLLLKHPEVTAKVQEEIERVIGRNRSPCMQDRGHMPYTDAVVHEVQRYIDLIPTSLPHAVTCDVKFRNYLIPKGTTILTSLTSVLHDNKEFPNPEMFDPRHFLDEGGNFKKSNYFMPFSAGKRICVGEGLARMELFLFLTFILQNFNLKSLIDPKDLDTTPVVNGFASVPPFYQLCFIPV
Sequence of CYP2C9 (P11712 whole entry): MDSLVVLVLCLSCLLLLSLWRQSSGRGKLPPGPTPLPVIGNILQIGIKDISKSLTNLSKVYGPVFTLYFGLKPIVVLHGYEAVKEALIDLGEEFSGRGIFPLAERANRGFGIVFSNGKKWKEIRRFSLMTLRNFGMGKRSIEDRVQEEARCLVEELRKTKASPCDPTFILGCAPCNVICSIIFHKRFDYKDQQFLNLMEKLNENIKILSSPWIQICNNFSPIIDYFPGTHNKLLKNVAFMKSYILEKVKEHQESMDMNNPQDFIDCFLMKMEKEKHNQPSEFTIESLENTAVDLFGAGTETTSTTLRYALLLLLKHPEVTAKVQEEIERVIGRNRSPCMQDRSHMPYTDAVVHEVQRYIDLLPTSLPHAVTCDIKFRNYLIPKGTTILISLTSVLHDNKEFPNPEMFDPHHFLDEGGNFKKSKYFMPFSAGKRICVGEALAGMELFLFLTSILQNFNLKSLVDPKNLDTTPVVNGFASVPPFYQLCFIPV

For the compound `Nc1ccn([C@@H]2CS[C@H](CO)O2)c(=O)n1` [3TC, lamivudine, reference compound], in series [1] (setting [10]), the “DRI Value ED75” value stood at 2.83 ± 0.52, the “DRI Value ED90” value came to 3.28 ± 0.80 and the “DRI Value ED95” value is on record as 3.64 ± 1.06.

For the compound `Cc1cn([C@H]2C[C@H](N=[N+]=[N-])[C@@H](CO)O2)c(=O)[nH]c1=O` [AZT, zidovudine, reference compound], in [1] (setting [11]), the “DRI Value ED75” value turned out to be 4.88 ± 2.30, the “DRI Value ED90” value came out at 5.60 ± 2.33 and the “DRI Value ED95” value is 6.52 ± 3.94.

`CC(C)CN(C[C@@H](O)[C@H](Cc1ccccc1)NC(=O)O[C@H]1CO[C@H]2OCC[C@H]21)S(=O)(=O)c1ccc(N)cc1` [DRV, darunavir, reference compound]: in series [1] (setting [12]), the “DRI Value ED75” value came to 2.82 ± 0.21, the “DRI Value ED90” value worked out at 3.41 ± 0.86 and the “DRI Value ED95” value is 3.93 ± 1.44.

`C[C@@H]1CCO[C@H]2Cn3cc(C(=O)NCc4ccc(F)cc4F)c(=O)c(O)c3C(=O)N12` [DTG, dolutegravir, reference compound]: in [1] (setting [13]), the “DRI Value ED75” value worked out at 2.37 ± 0.28, the “DRI Value ED90” value turned out to be 2.50 ± 0.41 and the “DRI Value ED95” value is 2.61 ± 0.68.

`Cc1cc(C#N)cc(C)c1Oc1nc(Nc2ccc(C#N)cc2)nc(N)c1Br` [ETR, etravirine, reference compound]: the IC50 against CYP2C19 worked out at 0.5 µM; on CYP2D6, 12 µM; on CYP1A2, 7.48 µM; at CYP3A4M, 41.3 µM; against CYP2C9, 0.28 µM. Besides, the EC50 in [2] (Human immunodeficiency virus 1, HIV-1IIIB, H9/HIV-1IIIB chronically infected, p24) is greater than 50 µM; in the series on HIV-1Yu-2(G140S/Q148H), less than 0.00013 µM; in the series with HIV-1IIIB [5] it was 0.00615 ± 0.00176 µM; in the series on HIV-1IIIB [8] (C8166, p24, 20% human serum), 0.00656 ± 0.00489 µM; in the series on HIV-1IIIB [8] (C8166, p24, 40% human serum) it was 0.00209 ± 0.00065 µM; in the series with HIV-1IIIB [9], 0.00174 ± 0.00067 µM. For the same compound, the “Inhibition of HIV-1 replication in HIV-1IIIB chronically infected H9 cells” value in series [2] (at a concentration of 50.00 µM) was “could not inhibit the replication”. In addition, the 50% cytotoxic concentration (CC50) at 3 days is 30.4 ± 1.59 µM in series [3], greater than 50 µM in [4] and 27.4 ± 5.46 µM in series [6]. Further, the CC50 at 7 days in series [7] stood at 34.5 ± 3.06 µM. The “DRI Value ED75” value in series [1] (setting [14]) is listed as 2.44 ± 0.52. Further, the “DRI Value ED90” value in [1] (setting [14]) amounted to 2.20 ± 0.58. In addition, the “DRI Value ED95” value in [1] (setting [14]) stood at 2.06 ± 0.61.

On to `Nc1nc(=O)n([C@@H]2CS[C@H](CO)O2)cc1F` [FTC, emtricitabine, reference compound], for which, in series [1] (setting [15]), the “DRI Value ED75” value came to 2.38 ± 0.10, the “DRI Value ED90” value is recorded as 2.22 ± 0.23 and the “DRI Value ED95” value came out at 2.11 ± 0.32.

On to `Cc1nnc(C(=O)NC(C)(C)c2nc(C(=O)NCc3ccc(F)cc3)c(O)c(=O)n2C)o1` [RAL, raltegravir, reference compound], for which, in [1], the “DRI Value ED75” value turned out to be 3.08 ± 1.11, the “DRI Value ED90” value worked out at 3.50 ± 1.64 and the “DRI Value ED95” value was 3.83 ± 2.07.

For `C[C@H](Cn1cnc2c(N)ncnc21)OCP(=O)(O)O` [TDF, tenofovir, reference compound], in series [1] (setting [16]), the “DRI Value ED75” value is listed as 3.22 ± 0.71, the “DRI Value ED90” value turned out to be 3.46 ± 0.35 and the “DRI Value ED95” value was determined as 3.69 ± 0.66.

For enfuvirtide [T-20, reference compound], in series [1] (setting [17]), the “DRI Value ED75” value came to 2.05 ± 0.42, the “DRI Value ED90” value was found to be 2.37 ± 0.18 and the “DRI Value ED95” value came out at 2.69 ± 0.66.

Turning to maraviroc [MVC, reference compound], in series [1] (setting [18]), the “DRI Value ED75” value worked out at 4.58 ± 0.50, the “DRI Value ED90” value came out at 5.10 ± 0.83 and the “DRI Value ED95” value stood at 5.49 ± 1.09.

Turning to “thioraviroc [DC521022, reference compound]”, in series [1] (setting [19]), the “DRI Value ED75” value amounted to 5.41 ± 4.21, the “DRI Value ED90” value was found to be 7.32 ± 6.96 and the “DRI Value ED95” value turned out to be 9.08 ± 9.61.
